IC50 data for 14 molecules are collected here from patent publication US20140349989A1, “COMPOUNDS AND THERAPEUTIC USES THEREOF” (Alzheimer's Institute of America, priority 2011, published 2014).

The target in one series is T1, Human NAMPT (Homo sapiens, UniProt P43490).
T1 construct: 6xHis (N); made in house; host or cells: E. coli BL21-AI
Put plainly: Nampt Activity Assay (coupled enzyme fluorometric, resazurin/diaphorase). Conditions: His-tagged human NAMPT, 3 μM NAM, 8 μM PRPP, room temperature up to 3 hours; read-out: in vitro IC50 (Nampt catalytic activity). Format: biochemical. The source says:
5-phosphoribosyl-1-pyrophosphate (PRPP), ATP, NaM, NaMN, Triton X-100, UDP-glucose and diaphorase were purchased from Sigma-Aldrich, St. Louis, Mo. Human NAMPT, NMN adenylyltransferase (NMNAT1) and UDP-glucose dehydrogenase (UGDH) encoding DNAs were each inserted into a house-modified E. Coli expression vector such that the expressed proteins carried an N-terminal 6×His tag. The His-tagged proteins were expressed in the BL21-AI E. Coli expression strain (Invitrogen Corporation, Carlsbad, Calif.) following induction by 0.2% L-arabinose and 0.5 mM IPTG at 30° C. Proteins were purified on Ni-NTA resin (Qiagen, Germantown, Md.).
The assay for Nampt catalytic activity was constructed based on a previously published coupled enzyme fluorometric technique, which employs NADH as ultimate analyte (Revollo, J. R. et al. Biol. Chem. 279, 50754-50763 (2004)). A substantial improvement in assay sensitivity was achieved by switching from direct detection to a resazurin/diaphorase-based fluorometric detection system for NADH (Guilbault, G. G., and Kramer, D. N. Anal. Chem. 37, 1219-1221 (1965)). The standard inhibition analyses were performed in a real-time mode in 96-well microtiter plates using 50 mM Tris-HCl, pH 7.5, 1% DMSO (v/v), 0.01% Triton X-100 (v/v), 10 mM MgCl2, 2 mM ATP, 3 μM NAM, 8 μM PRPP, […], as well as the following detection reagents: 5 nM Nmnat, 200 nM Ugdh, 200 μM UDP-glucose, 0.02 U/mL diaphorase and 0.25 μM resazurin. Incubation of samples at room temperature for up to 3 hours was followed by quantification of fluorescence intensities at excitation and emission wavelengths of 510 nm and 590 nm, respectively, using Gemini XS plate reader (Molecular Devices, Sunnyvale, Calif.). The counter-assay intended to disqualify false positives, such as inhibitors of detection enzymes or fluorescence quenchers, was carried out essentially as described above with an exception that 1 μM NaMN was substituted for Nampt.
For orientation: The colour change of resazurin is a common sign of viable cells or microbes.

The nature of series [1]: Cytotoxicity Assay (HCT116, CellTiter-Glo). In kind it is cell-based. The note with it: human. In a few lines: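 Cells settled overnight, then exposed to compound in DMSO for 72 h, optionally with nicotinic acid (10 μM final) added alongside. Viability read as CellTiter-Glo luminescence.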
On the technique in general: In ATP-based viability assays light output follows the ATP content of the culture.

Setting [2] is: HCT116 cells, 72 hours drug incubation, CellTiter-Glo luminescence, read-out: HCT116 cell cytotoxicity IC50.

pIC50: −log10 of the molar value. Read-outs that look alike come from different tables or passages of the source.

T1 sequence (P43490 whole entry): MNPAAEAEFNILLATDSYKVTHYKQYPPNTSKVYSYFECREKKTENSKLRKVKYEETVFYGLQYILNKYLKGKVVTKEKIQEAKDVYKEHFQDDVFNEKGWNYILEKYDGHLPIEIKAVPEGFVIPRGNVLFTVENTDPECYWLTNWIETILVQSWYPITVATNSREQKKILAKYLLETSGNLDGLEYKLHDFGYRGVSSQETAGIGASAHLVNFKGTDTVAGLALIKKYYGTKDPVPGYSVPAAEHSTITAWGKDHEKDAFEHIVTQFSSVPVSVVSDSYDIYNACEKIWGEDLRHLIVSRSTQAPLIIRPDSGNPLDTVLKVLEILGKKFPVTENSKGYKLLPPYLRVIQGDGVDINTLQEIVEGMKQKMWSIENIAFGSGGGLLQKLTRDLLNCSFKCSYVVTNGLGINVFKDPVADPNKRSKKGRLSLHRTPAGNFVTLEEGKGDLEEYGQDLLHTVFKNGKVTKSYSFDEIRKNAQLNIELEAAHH

For orientation: pIC50 means the IC50 on a negative log10 scale, so that one unit is a factor of ten. Broadly, the IC50 is the concentration at which inhibition is half-maximal. Regarding `O=C(NCc1cccnc1)Nc1ccc(-n2cc(C(=O)NCCCN3CCCC3)c3ccccc32)cc1` [Compound 4], the negative-log IC50 (pIC50) at Human NAMPT is ~9.00. For the same molecule, the IC50 at 72 h in series [1] (HCT116 cell cytotoxicity IC50) was ~8 nM.

On to `O=C(NCc1cccnc1)Nc1ccc(-n2cc(CCN3CCCC3)c3ccccc32)cc1` [Compound 78, 1-(Pyridin-3-ylmethyl)-3-(4-{3-[2-(pyrrolidin-1-yl)ethyl]-1H-indol-1-yl}phenyl)urea], for which, at Human NAMPT, the pIC50 is ~9.00. The IC50 at 72 h was ~1 nM in series [1] (HCT116 cell cytotoxicity IC50) and < 100 nM in series [1] (setting [2]).

On to `O=C(/C=C/c1ccc(-n2cc(CCN3CCOCC3)c3ccccc32)cc1)NCc1cccnc1` [Compound 175, (2E)-3-(4-{3-[2-(Morpholin-4-yl)ethyl]-1H-indol-1-yl}phenyl)-N-(pyridin-3-ylmethyl)prop-2-enamide], for which the pIC50 on Human NAMPT was ~9.00. Also, the results for the IC50 at 72 h in series [1] (HCT116 cell cytotoxicity IC50) and in series [1] (setting [2]) were ~7 nM and < 100 nM, respectively.

As for `Cc1c(-c2ccccc2)c(C(=O)O)nn1-c1ccc(NC(=O)NCc2cccnc2)cc1` [Compound 119, 5-Methyl-4-phenyl-1-(4-{[(pyridin-3-ylmethyl)carbamoyl]amino}phenyl)-1H-pyrazole-3-carboxylic acid], on Human NAMPT, the pIC50 is ~8.70.

`O=C(NCc1cccnc1)Nc1ccc(-n2ccc(C(=O)NCCN3CCCC3)n2)cc1` [Compound 1, 1-(4-{[(Pyridin-3-ylmethyl)carbamoyl]amino}phenyl)-N-[2-(pyrrolidin-1-yl)ethyl]-1H-pyrazole-3-carboxamide]: at Human NAMPT, the pIC50 is ~8.00.

As for `O=C(NCc1cccnc1)Nc1ccc(-c2nn(C3CN(C4CCCC4)C3)c3ccccc23)cc1` [Compound 33, 1-{4-[1-(1-Cyclopentyl-azetidin-3-yl)-1H-indazol-3-yl]phenyl}-3-(pyridin-3-ylmethyl)urea], the pIC50 at Human NAMPT was > 9.00. Moreover, the IC50 at 72 h is ~1 nM in series [1] (HCT116 cell cytotoxicity IC50) and < 100 nM in series [1] (setting [2]).

For `CC(C)N1CCC2(CC1)CN(c1ccc(NC(=O)NCc3cccnc3)cc1)c1ccccc12` [Compound 61, 1-{4-[1′-(Propan-2-yl)spiro[indole-3,4′-piperidin]-1(2H)-yl]phenyl}-3-(pyridin-3-ylmethyl)urea], the pIC50 at Human NAMPT was > 9.00.

Take `O=C(NCc1cccnc1)Nc1ccc(-n2cc(C(=O)N3CCC(N4CCOCC4)CC3)c3cccnc32)cc1` [Compound 27, 1-[4-[3-(4-morpholinopiperidine-1-carbonyl)pyrrolo[2,3-b]pyridin-1-yl]phenyl]-3-(3-pyridylmethyl)urea]: the pIC50 at Human NAMPT is ~9.00. Further, the IC50 at 72 h in series [1] (HCT116 cell cytotoxicity IC50) is ~4 nM.

In the case of `O=C(NCc1cccnc1)Nc1ccc(-n2nc(C(=O)NCCN3CCCC3)c3ccccc32)cc1` [Compound 6, 1-(4-{[(Pyridin-3-ylmethyl)carbamoyl]amino}phenyl)-N-[2-(pyrrolidin-1-yl)ethyl]-1H-indazole-3-carboxamide], on Human NAMPT, the pIC50 is ~8.70. Besides, the IC50 at 72 h in series [1] (HCT116 cell cytotoxicity IC50) is ~18 nM.

For the molecule `CC(C(=O)N(C)C)N1CCC2(CC1)CN(c1ccc(NC(=O)NCc3cccnc3)cc1)c1ccccc12` (stereo not drawn) [Compound 47, N,N-Dimethyl-2-[1-(4-{[(pyridin-3-ylmethyl)carbamoyl]ami-no}phenyl)-1,2-dihydro-1′H-spiro[indole-3,4′-piperidin]-1′-yl]propanamide], at Human NAMPT, the pIC50 was > 9.00. The results for the concentration for half-maximal inhibition (IC50) at 72 h in series [1] (HCT116 cell cytotoxicity IC50) and in series [1] (setting [2]) were < 1 nM and < 100 nM, respectively.

In the case of `O=C(NCc1cccnc1)Nc1ccc(-n2cc(C3CCNCC3)c3ccccc32)cc1` [Compound 29, 1-[4-[3-(4-piperidyl)indol-1-yl]phenyl]-3-(3-pyridylmethyl)urea], the pIC50 at Human NAMPT is ~9.00.

Take `O=C(/C=C/c1ccc(-n2nc(C(=O)N3CC(N4CCOCC4)C3)c3ccccc32)cc1)NCc1cccnc1` [Compound 169, (2E)-3-[4-(3-{[3-(Morpholin-4-yl)azetidin-1-yl]carbonyl}-1H-indazol-1-yl)phenyl]-N-(pyridin-3-ylmethyl)prop-2-enamide]: on Human NAMPT, the pIC50 is ~8.52. The IC50 at 72 h in series [1] (HCT116 cell cytotoxicity IC50) was ~10 nM; in series [1] (setting [2]) it was < 100 nM.

As to `O=C(NCc1cccnc1)Nc1ccc(-n2nc(N3CCN(C4CCCC4)CC3)c3ccccc32)cc1` [Compound 109, 1-{4-[3-(4-Cyclopentyl-piperazin-1-yl)-1H-indazol-1-yl]phenyl}-3-(pyridin-3-ylmethyl)urea], the pIC50 at Human NAMPT was ~9.00. Moreover, the IC50 at 72 h in series [1] (HCT116 cell cytotoxicity IC50) is ~1 nM; in series [1] (setting [2]), < 100 nM.

As for `O=C(NCc1cccnc1)Nc1ccc(-n2cc(C(=O)N3CC(N4CCNCC4)C3)c3ccccc32)cc1` [Compound 15, 1-[4-(3-{[3-(Piperazin-1-yl)azetidin-1-yl]carbonyl}-1H-indol-1-yl)phenyl]-3-(pyridin-3-ylmethyl)urea], the pIC50 at Human NAMPT is ~9.00. In addition, the IC50 at 72 h in series [1] (HCT116 cell cytotoxicity IC50) is ~60 nM.
